Source: ChEMBL document CHEMBL1201862, “PubChem BioAssay data set” (2004)
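48-hour exposure; five concentrations; linearly interpolated endpoints. The concentration for 50% growth inhibition is given as GI50.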 Calls of active or inactive are those of the source. Cut-off read from the data, not from the text of the source: active = GI50 up to about 1.1 µM and inactive = higher. Where a SMILES comes first, the peptide text is derived from it. The star is where a group is joined. Boc = CC(C)(C)OC(=O)*; OSu = O=C1CCC(=O)N1O*

Legend:
Experiment in all cases: NCI-60 cell line screen, 48 h
MDA-N = system: MDA-N
HCT-15 = system: HCT-15
SK-OV-3 = system: SK-OV-3
Malme-3M = system: Malme-3M
NCI-H226 = system: NCI-H226
LOX IMVI = system: LOX IMVI
HCC 2998 = system: HCC 2998
786-0 = system: 786-0
HOP-62 = system: HOP-62
HCT-116 = system: HCT-116
KM12 = system: KM12
COLO 205 = system: COLO 205
NCI-H522 = system: NCI-H522
U-251 = system: U-251
SN12C = system: SN12C
RPMI-8226 = system: RPMI-8226
EKVX = system: EKVX
UACC-257 = system: UACC-257
CAKI-1 = system: CAKI-1
UO-31 = system: UO-31

SMILES	GI50 (MDA-N)	GI50 (HCT-15)	GI50 (SK-OV-3)	GI50 (Malme-3M)	GI50 (NCI-H226)	GI50 (LOX IMVI)	GI50 (HCC 2998)	GI50 (786-0)	GI50 (HOP-62)	GI50 (HCT-116)	GI50 (KM12)	GI50 (COLO 205)	GI50 (NCI-H522)	GI50 (U-251)	GI50 (SN12C)	GI50 (RPMI-8226)	GI50 (EKVX)	GI50 (UACC-257)	GI50 (CAKI-1)	GI50 (UO-31)
Cc1nn(C(=O)c2ccc(Cl)cc2)c2c1C(c1ccccc1[N+](=O)[O-])SC(=N)N2 (stereo not given)	> 10 µM (inactive)	> 10 µM	> 10 µM (inactive)	> 10 µM (inactive)	> 10 µM (inactive)	> 10 µM (inactive)	> 10 µM (inactive)	> 10 µM (inactive)	> 10 µM (inactive)	> 10 µM (inactive)	> 10 µM (inactive)	> 10 µM (inactive)	> 10 µM (inactive)	> 10 µM (inactive)	> 10 µM (inactive)	> 10 µM (inactive)	> 10 µM (inactive)	> 10 µM (inactive)	> 10 µM (inactive)	–
O=c1nc2ccc3sc4ccccc4c(=O)c3n2c(=O)[nH]1	> 100 µM (inactive)	> 100 µM	–	> 100 µM (inactive)	> 100 µM (inactive)	> 100 µM (inactive)	> 100 µM (inactive)	> 100 µM (inactive)	> 100 µM (inactive)	> 100 µM (inactive)	> 100 µM (inactive)	> 100 µM (inactive)	73.8 µM (inactive)	> 100 µM (inactive)	> 100 µM (inactive)	> 100 µM (inactive)	11.7 µM (inactive)	> 100 µM (inactive)	> 100 µM (inactive)	> 100 µM (inactive)
C/C(=N\NC(=S)N1CCOCC1)c1nc2cccnc2[nH]1	> 100 µM (inactive)	53.5 µM	36.6 µM (inactive)	> 100 µM (inactive)	38.5 µM (inactive)	29.4 µM (inactive)	78.3 µM (inactive)	> 10 µM (inactive)	24.9 µM (inactive)	27.8 µM (inactive)	67 µM (inactive)	36.9 µM (inactive)	18.8 µM (inactive)	21.6 µM (inactive)	74 µM (inactive)	42.6 µM (inactive)	19.5 µM (inactive)	26 µM (inactive)	66.8 µM (inactive)	17.5 µM (inactive)
CNc1ncccc1Nc1cc(=O)n2c3cccnc3n(C)c2c1	> 100 µM (inactive)	> 100 µM	> 100 µM (inactive)	–	> 100 µM (inactive)	> 100 µM (inactive)	> 100 µM (inactive)	> 100 µM (inactive)	36.8 µM (inactive)	> 100 µM (inactive)	> 100 µM (inactive)	> 100 µM (inactive)	61 µM (inactive)	21.8 µM (inactive)	–	> 100 µM (inactive)	> 100 µM (inactive)	> 100 µM (inactive)	94.6 µM (inactive)	> 100 µM (inactive)
CC(NC(=O)C(NC(=O)OC(C)(C)C)C(C)C)C(=O)NCC(=O)ON1C(=O)CCC1=O (stereo not drawn) (Boc-Val-Ala-Gly-OSu; configuration not given here)	> 100 µM (inactive)	> 100 µM	> 100 µM (inactive)	> 100 µM (inactive)	> 100 µM (inactive)	–	> 100 µM (inactive)	> 100 µM (inactive)	> 100 µM (inactive)	> 100 µM (inactive)	> 100 µM (inactive)	> 100 µM (inactive)	63.4 µM (inactive)	> 100 µM (inactive)	> 100 µM (inactive)	> 100 µM (inactive)	> 100 µM (inactive)	> 100 µM (inactive)	> 100 µM (inactive)	> 100 µM (inactive)
CN1CCc2cc(N)cc3c2C1Cc1ccc(O)c(O)c1-3 (stereo not given)	34.7 µM (inactive)	36.4 µM	52.7 µM (inactive)	37.8 µM (inactive)	32.7 µM (inactive)	18.6 µM (inactive)	12.6 µM (inactive)	33 µM (inactive)	49.3 µM (inactive)	32.2 µM (inactive)	33.4 µM (inactive)	37.9 µM (inactive)	27.2 µM (inactive)	39.5 µM (inactive)	34.5 µM (inactive)	21.8 µM (inactive)	43.6 µM (inactive)	16.3 µM (inactive)	37.2 µM (inactive)	42.8 µM (inactive)
COC(=O)C(CBr)CBr	3.48 µM (inactive)	1.71 µM	18.8 µM (inactive)	2.2 µM (inactive)	13.3 µM (inactive)	2.6 µM (inactive)	4.49 µM (inactive)	4.52 µM (inactive)	22.5 µM (inactive)	2.96 µM (inactive)	8.04 µM (inactive)	1.27 µM (inactive)	2.14 µM (inactive)	5.56 µM (inactive)	3.9 µM (inactive)	0.757 µM (active)	9.55 µM (inactive)	5.58 µM (inactive)	5.51 µM (inactive)	5.65 µM (inactive)
CC(=N/NC(N)=S)/C(C)=N/NC(N)=S	> 100 µM (inactive)	> 100 µM	–	> 100 µM (inactive)	> 100 µM (inactive)	> 100 µM (inactive)	> 100 µM (inactive)	> 100 µM (inactive)	> 100 µM (inactive)	> 100 µM (inactive)	> 100 µM (inactive)	> 100 µM (inactive)	> 100 µM (inactive)	–	> 100 µM (inactive)	> 100 µM (inactive)	> 100 µM (inactive)	> 100 µM (inactive)	–	> 100 µM (inactive)
CCOC(=O)/C=C1\C[C@H](NC(=O)OCc2ccccc2)C(=O)N1CC(=O)OCC	> 100 µM (inactive)	> 100 µM	> 100 µM (inactive)	> 100 µM (inactive)	> 100 µM (inactive)	–	> 100 µM (inactive)	> 100 µM (inactive)	> 100 µM (inactive)	> 100 µM (inactive)	> 100 µM (inactive)	> 100 µM (inactive)	> 100 µM (inactive)	> 100 µM (inactive)	> 100 µM (inactive)	> 100 µM (inactive)	> 100 µM (inactive)	> 100 µM (inactive)	> 100 µM (inactive)	> 100 µM (inactive)
CC(=O)C1(O)CCC2(O)C3(O)CC=C4CC(O)CCC4(C)C3CC(OC(=O)c3ccc(O)cc3)C12C (stereo not given)	> 100 µM (inactive)	> 100 µM	> 100 µM (inactive)	–	80.2 µM (inactive)	> 100 µM (inactive)	> 100 µM (inactive)	> 100 µM (inactive)	> 100 µM (inactive)	> 100 µM (inactive)	> 100 µM (inactive)	> 100 µM (inactive)	> 100 µM (inactive)	> 100 µM (inactive)	> 100 µM (inactive)	> 100 µM (inactive)	> 100 µM (inactive)	> 100 µM (inactive)	> 100 µM (inactive)	> 100 µM (inactive)
C/C(=N/NC(=S)Nc1cccc(Cl)c1)c1cccc(/C(C)=N\NC(=S)Nc2cccc(Cl)c2)n1	20.2 µM (inactive)	2.49 µM	4.22 µM (inactive)	1.43 µM (inactive)	0.998 µM (active)	1.84 µM (inactive)	6.85 µM (inactive)	0.893 µM (active)	1.15 µM (inactive)	2.4 µM (inactive)	3.52 µM (inactive)	1.35 µM (inactive)	3.03 µM (inactive)	3.13 µM (inactive)	3.48 µM (inactive)	3.05 µM (inactive)	3.44 µM (inactive)	4.66 µM (inactive)	2.86 µM (inactive)	1.67 µM (inactive)
C=C1C(=O)OC2CC3(CO3)C3C(O)C(O)CC3(C)CC12 (stereo not given)	23.4 µM (inactive)	17 µM	> 100 µM (inactive)	18.2 µM (inactive)	> 100 µM (inactive)	8.24 µM (inactive)	17.3 µM (inactive)	76.9 µM (inactive)	61.9 µM (inactive)	18.2 µM (inactive)	32.9 µM (inactive)	29.9 µM (inactive)	12.3 µM (inactive)	43 µM (inactive)	24.4 µM (inactive)	30.9 µM (inactive)	18.3 µM (inactive)	39.2 µM (inactive)	20.3 µM (inactive)	–
CC(=O)c1[nH]c(NC(C)C)c(C(=S)Nc2ccccc2)c1N	22.1 µM (inactive)	26.9 µM	65.9 µM (inactive)	25.7 µM (inactive)	21.1 µM (inactive)	19.1 µM (inactive)	28.2 µM (inactive)	24.3 µM (inactive)	38 µM (inactive)	24.1 µM (inactive)	29.6 µM (inactive)	27.9 µM (inactive)	16.6 µM (inactive)	–	27.9 µM (inactive)	0.059 µM (active)	37 µM (inactive)	24 µM (inactive)	32.9 µM (inactive)	20.5 µM (inactive)
COc1c(O)cc2oc(-c3ccc(O)cc3)cc(=O)c2c1O [HISPIDULIN]	37.2 µM (inactive)	38.7 µM	48.2 µM (inactive)	74.8 µM (inactive)	77.6 µM (inactive)	39.2 µM (inactive)	28.7 µM (inactive)	60.1 µM (inactive)	46.7 µM (inactive)	35.3 µM (inactive)	31.5 µM (inactive)	90.4 µM (inactive)	36.2 µM (inactive)	42.7 µM (inactive)	39.4 µM (inactive)	46.3 µM (inactive)	8.07 µM (inactive)	> 100 µM (inactive)	–	25.1 µM (inactive)
C=CC(=C)CCC(Br)C(C)(C)Br (stereo not given)	> 100 µM (inactive)	> 100 µM	> 100 µM (inactive)	41.2 µM (inactive)	> 100 µM (inactive)	–	> 100 µM (inactive)	99.1 µM (inactive)	> 100 µM (inactive)	54.3 µM (inactive)	> 100 µM (inactive)	74 µM (inactive)	15.7 µM (inactive)	> 100 µM (inactive)	> 100 µM (inactive)	88.1 µM (inactive)	> 100 µM (inactive)	> 100 µM (inactive)	–	> 100 µM (inactive)
